Patent US5563155A, “Individual stereosiomers of 7-[3-(aminoalkyl)-1-pyrrolidinyl]-quinolones and naphthyridones as antibacterial agents” (Warner-Lambert Company, priority 1995, dated 1996)
In brackets after ≈: the same amount, converted by molar mass.

Experiments:
Assay type in all cases: cell-based
Strep. pheumoniae SV-1 = test: in vitro antibacterial activity, microtitration dilution (MIC), Strep. pneumoniae SV-1; conditions: Streptococcus pneumoniae, SV1, read-out: minimum inhibiting concentration (MIC)
Excerpt: (§1) The in vitro antibacterial activity, is obtained by the microtitration dilution method as described in Heifetz, et al., Antimicr. Agents & Chemother., 6, 124 (1974), which is incorporated herein by reference.
(§2) By use of the above methods, the following minimum inhibiting concentration values (MICs in μg/mL), PD50 's in mg/kg, no effect phototoxicity dose in mg/kg and the cytotoxicity IC50 in μg/mL were obtained for representative enantiomers of the invention and compounds of the prior art as shown in the table.

Pseud. aeruginosa UI-18 = test: in vitro antibacterial activity, microtitration dilution (MIC), Pseud. aeruginosa UI-18; conditions: Pseudomonas aeruginosa, UI18, read-out: minimum inhibiting concentration (MIC)
Excerpt: as §1, §2

Ent. cloacae MA2646 = test: in vitro antibacterial activity, microtitration dilution (MIC), Ent. cloacae MA2646; conditions: Enterobacter cloacae, read-out: minimum inhibiting concentration (MIC)
Excerpt: as §1, §2

Klebs. pneumoniae MGH-2 = test: in vitro antibacterial activity, microtitration dilution (MIC), Klebs. pneumoniae MGH-2; conditions: Klebsiella pneumoniae, MGH2, read-out: minimum inhibiting concentration (MIC)
Excerpt: as §1, §2

Prot. rettgeri M 1771 = test: in vitro antibacterial activity, microtitration dilution (MIC), Prot. rettgeri M 1771; conditions: Providencia rettgeri, M1771, read-out: minimum inhibiting concentration (MIC)
Excerpt: as §1, §2

Staph. aureus UC-76 = test: in vitro antibacterial activity, microtitration dilution (MIC), Staph. aureus UC-76; conditions: Staphylococcus aureus, UC76, read-out: minimum inhibiting concentration (MIC)
Excerpt: as §1, §2

Strep. faecalis MGH-2 = test: in vitro antibacterial activity, microtitration dilution (MIC), Strep. faecalis MGH-2; conditions: Enterococcus faecalis, MGH2, read-out: minimum inhibiting concentration (MIC)
Excerpt: as §1, §2

Esch. coli Vogel = test: in vitro antibacterial activity, microtitration dilution (MIC), Esch. coli Vogel; conditions: Escherichia coli, read-out: minimum inhibiting concentration (MIC)
Excerpt: as §1, §2

Staph. aureus H 228 = test: in vitro antibacterial activity, microtitration dilution (MIC), Staph. aureus H 228; conditions: Staphylococcus aureus, H228, read-out: minimum inhibiting concentration (MIC)
Excerpt: as §1, §2

Strep. pyogenes C-203 = test: in vitro antibacterial activity, microtitration dilution (MIC), Strep. pyogenes C-203; conditions: Streptococcus pyogenes, C203, read-out: minimum inhibiting concentration (MIC)
Excerpt: as §1, §2

SMILES	MIC (Strep. pheumoniae SV-1) [µg/mL]	MIC (Pseud. aeruginosa UI-18) [µg/mL]	MIC (Ent. cloacae MA2646) [µg/mL]	MIC (Klebs. pneumoniae MGH-2) [µg/mL]	MIC (Prot. rettgeri M 1771) [µg/mL]	MIC (Staph. aureus UC-76) [µg/mL]	MIC (Strep. faecalis MGH-2) [µg/mL]	MIC (Esch. coli Vogel) [µg/mL]	MIC (Staph. aureus H 228) [µg/mL]	MIC (Strep. pyogenes C-203) [µg/mL]
CCN[C@H](C)[C@H]1CCN(c2c(F)cc3c(=O)c(C(=O)O)cn(C4CC4)c3c2OC)C1 [Example 19, 3S,1R-1-cyclopropyl-6-fluoro-7-[3-(1-N-ethylaminoethyl)1-pyrrolidinyl]-8-methoxy-1,4-dihydro-4-oxo-3-quinolinecarboxylic acid]	0.013 (≈ 0.0311 µM)	6.3 (≈ 15.1 µM)	0.4 (≈ 0.958 µM)	0.8 (≈ 1.92 µM)	1.6 (≈ 3.83 µM)	0.05 (≈ 0.12 µM)	0.1 (≈ 0.24 µM)	0.4 (≈ 0.958 µM)	0.1 (≈ 0.24 µM)	0.025 (≈ 0.0599 µM)
CCN[C@@H](C)[C@H]1CCN(c2c(F)cc3c(=O)c(C(=O)O)cn(C4CC4)c3c2OC)C1 [Example 20, 3S,1S-1-cyclopropyl-6-fluoro-7-[3-(1-N-ethylaminoethyl)1-pyrrolidinyl]-8-methoxy-1,4-dihydro-4-oxo-3quinolinecarboxylic acid]	0.2 (≈ 0.479 µM)	6.3 (≈ 15.1 µM)	0.8 (≈ 1.92 µM)	1.6 (≈ 3.83 µM)	3.1 (≈ 7.43 µM)	0.05 (≈ 0.12 µM)	0.4 (≈ 0.958 µM)	0.8 (≈ 1.92 µM)	0.2 (≈ 0.479 µM)	0.2 (≈ 0.479 µM)
CN[C@H](C)[C@H]1CCN(c2nc3c(cc2F)c(=O)c(C(=O)O)cn3C2CC2)C1 [Example 23, 3S,1R-1-cyclopropyl-6-fluoro-7-[3-(1-N-methylaminoethyl)-1-pyrrolidinyl]-1,4-dihydro-4-oxo-1,8-naphthyridine-3-carboxylic acid]	0.1 (≈ 0.267 µM)	1.6 (≈ 4.27 µM)	0.1 (≈ 0.267 µM)	0.2 (≈ 0.534 µM)	0.8 (≈ 2.14 µM)	0.05 (≈ 0.134 µM)	0.2 (≈ 0.534 µM)	0.1 (≈ 0.267 µM)	0.2 (≈ 0.534 µM)	0.1 (≈ 0.267 µM)
CN[C@@H](C)[C@H]1CCN(c2nc3c(cc2F)c(=O)c(C(=O)O)cn3C2CC2)C1 [Example 24, 3S,1S-1-cyclopropyl-6-fluoro-7-[3-(1-N-methylaminoethyl)-1-pyrrolidinyl]-1,4-dihydro-4-oxo-1,8-naphthyridine-3-carboxylic acid]	0.4 (≈ 1.07 µM)	3.1 (≈ 8.28 µM)	0.4 (≈ 1.07 µM)	0.4 (≈ 1.07 µM)	0.8 (≈ 2.14 µM)	0.2 (≈ 0.534 µM)	0.8 (≈ 2.14 µM)	0.2 (≈ 0.534 µM)	0.8 (≈ 2.14 µM)	0.4 (≈ 1.07 µM)
CN[C@H](C)[C@H]1CCN(c2c(F)c(N)c3c(=O)c(C(=O)O)cn(C4CC4)c3c2F)C1 [Example 34, 3S,1R-5-amino-1-cyclopropyl-6,8-difluoro-7-[3-(1-N-methylaminoethyl)-1-pyrrolidinyl]-1,4-dihydro-4-oxo-3-quinolinecarboxylic acid]	0.8 (≈ 1.97 µM)	3.1 (≈ 7.63 µM)	0.4 (≈ 0.984 µM)	0.8 (≈ 1.97 µM)	1.6 (≈ 3.94 µM)	0.4 (≈ 0.984 µM)	1.6 (≈ 3.94 µM)	0.4 (≈ 0.984 µM)	0.8 (≈ 1.97 µM)	1.6 (≈ 3.94 µM)
CN[C@@H](C)[C@H]1CCN(c2c(F)c(N)c3c(=O)c(C(=O)O)cn(C4CC4)c3c2F)C1 [Example 35, 3S,1S-5-amino-1-cyclopropyl-6,8-difluoro-7-[3-(1-N-methylaminoethyl)-1-pyrrolidinyl]-1,4-dihydro-4-oxo-3-quinolinecarboxylic acid]	0.2 (≈ 0.492 µM)	3.1 (≈ 7.63 µM)	0.2 (≈ 0.492 µM)	0.8 (≈ 1.97 µM)	0.8 (≈ 1.97 µM)	0.05 (≈ 0.123 µM)	0.2 (≈ 0.492 µM)	0.2 (≈ 0.492 µM)	0.1 (≈ 0.246 µM)	0.2 (≈ 0.492 µM)
COc1c(N2CC[C@@H]([C@H](C)N)C2)c(F)cc2c(=O)c(C(=O)O)cn(C3CC3)c12 [Example 44, 3R,1S-7-[3-(1-aminoethyl)-1-pyrrolidinyl]-1-cyclopropyl-6-fluoro-1,4-dihydro-8-methoxy-4-oxo-3-quinolinecarboxylic acid]	≤ 0.003	0.4 (≈ 1.03 µM)	0.05 (≈ 0.128 µM)	0.05 (≈ 0.128 µM)	0.05 (≈ 0.128 µM)	≤ 0.003	0.006 (≈ 0.0154 µM)	0.025 (≈ 0.0642 µM)	0.006 (≈ 0.0154 µM)	≤ 0.003
COc1c(N2CC[C@@H]([C@@H](C)N)C2)c(F)cc2c(=O)c(C(=O)O)cn(C3CC3)c12 [Example 45, 3R,1R-7-[3-(1-aminoethyl)-1-pyrrolidinyl]-1-cyclopropyl-6-fluoro-1,4-dihydro-8-methoxy-4-oxo-3-quinolinecarboxylic acid]	0.013 (≈ 0.0334 µM)	0.8 (≈ 2.05 µM)	0.05 (≈ 0.128 µM)	0.1 (≈ 0.257 µM)	0.2 (≈ 0.514 µM)	≤ 0.03	0.025 (≈ 0.0642 µM)	0.05 (≈ 0.128 µM)	0.25 (≈ 0.642 µM)	0.013 (≈ 0.0334 µM)
Cc1c(F)c(N2CC[C@@H]([C@@H](C)N)C2)cc2c1c(=O)c(C(=O)O)cn2-c1ccc(F)cc1F [Example 46, 3R,1R-7-[3-(1-aminoethyl)-1-pyrrolidinyl]-1-(2,4-difluorophenyl)-6-fluoro-1,4-dihydro-5-methyl-4-oxo-3-quinolinecarboxylic acid]	0.013 (≈ 0.0292 µM)	1.6 (≈ 3.59 µM)	0.2 (≈ 0.449 µM)	0.4 (≈ 0.898 µM)	0.4 (≈ 0.898 µM)	0.013 (≈ 0.0292 µM)	0.1 (≈ 0.224 µM)	0.2 (≈ 0.449 µM)	0.025 (≈ 0.0561 µM)	0.013 (≈ 0.0292 µM)

The next lines start with the values.

MIC (Strep. pheumoniae SV-1) [µg/mL]	MIC (Pseud. aeruginosa UI-18) [µg/mL]	MIC (Ent. cloacae MA2646) [µg/mL]	MIC (Klebs. pneumoniae MGH-2) [µg/mL]	MIC (Prot. rettgeri M 1771) [µg/mL]	MIC (Staph. aureus UC-76) [µg/mL]	MIC (Strep. faecalis MGH-2) [µg/mL]	MIC (Esch. coli Vogel) [µg/mL]	MIC (Staph. aureus H 228) [µg/mL]	MIC (Strep. pyogenes C-203) [µg/mL]	SMILES
0.003 (≈ 0.00803 µM)	0.8 (≈ 2.14 µM)	0.1 (≈ 0.268 µM)	0.1 (≈ 0.268 µM)	0.2 (≈ 0.536 µM)	0.003 (≈ 0.00803 µM)	0.025 (≈ 0.0669 µM)	0.1 (≈ 0.268 µM)	0.025 (≈ 0.0669 µM)	0.003 (≈ 0.00803 µM)	Cc1c(F)c(N2CC[C@@H]([C@H](C)N)C2)cc2c1c(=O)c(C(=O)O)cn2C1CC1 [Example 47, 3R,1S-7-[3-(1-aminoethyl)-1-pyrrolidinyl]-1-cyclopropyl-6-fluoro-1,4-dihydro-5-methyl-4-oxo-3-quinolinecarboxylic acid]
0.006 (≈ 0.0149 µM)	1.6 (≈ 3.97 µM)	0.2 (≈ 0.496 µM)	0.2 (≈ 0.496 µM)	0.2 (≈ 0.496 µM)	≤ 0.003	0.025 (≈ 0.062 µM)	0.1 (≈ 0.248 µM)	0.013 (≈ 0.0322 µM)	0.006 (≈ 0.0149 µM)	CCOc1c(N2CC[C@@H]([C@H](C)N)C2)c(F)cc2c(=O)c(C(=O)O)cn(C3CC3)c12 [Example 49, 3R,1S-7-[3-(1-aminoethyl)-1-pyrrolidinyl]-1-cyclopropyl-8-ethoxy-6-fluoro-1,4-dihydro-4-oxo-3-quinolinecarboxylic acid]
0.2 (≈ 0.434 µM)	> 3.1	0.8 (≈ 1.74 µM)	1.6 (≈ 3.47 µM)	3.1 (≈ 6.73 µM)	0.05 (≈ 0.109 µM)	0.4 (≈ 0.869 µM)	0.8 (≈ 1.74 µM)	0.2 (≈ 0.434 µM)	0.2 (≈ 0.434 µM)	CCN[C@H](C)[C@@H]1CCN(c2nc3c(cc2F)c(=O)c(C(=O)O)cn3-c2ccc(F)cc2F)C1 [Example 51, 3R,1R-7-[3-(1-N-ethylaminoethyl)-1-pyrrolidinyl]-1-(2,4-difluorophenyl)-6-fluoro-1,4-dihydro-4-oxo-1,8-naphthyridine-3-carboxylic acid]
0.05 (≈ 0.125 µM)	3.1 (≈ 7.72 µM)	0.4 (≈ 0.996 µM)	0.4 (≈ 0.996 µM)	1.6 (≈ 3.99 µM)	0.013 (≈ 0.0324 µM)	0.05 (≈ 0.125 µM)	0.4 (≈ 0.996 µM)	0.05 (≈ 0.125 µM)	0.05 (≈ 0.125 µM)	CCN[C@@H](C)[C@@H]1CCN(c2cc3c(c(C)c2F)c(=O)c(C(=O)O)cn3C2CC2)C1 [Example 52, 3R,1S-1-cyclopropyl-7-[3-(1-N-ethylaminoethyl)-1-pyrrolidinyl]-6-fluoro-1,4-dihydro-5-methyl-4-oxo-3-quinolinecarboxylic acid]
